The values below come from US20110318768A1, “METHOD FOR DETERMINING SENSITIVITY OF TUMOR CELLS TO TYROSINE KINASE INHIBITOR AND COMPUTER PROGRAM PRODUCT” (SYSMEX CORPORATION, priority 2010, published 2011).

For test [1], the system named is tyrosine kinase in cell membrane fraction of BT-483. Nature of the test: Tyrosine kinase activity inhibition rate in cell membrane fraction (Poly-Glu4-Tyr substrate). The format is biochemical. To be noted: for Inhibition rate: 25 μM kinase inhibitor, 25 μM ATP. In a few lines:
(§1)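 Kinase source: detergent (1% NP-40) membrane extract of the cell line, assayed at 5 μg/ml protein. Conditions were 25 μM ATP, Mg2+/Mn2+ buffer, 25 μM compound and 60 min at 37 °C. Tyrosine phosphorylation was detected by chemiluminescence.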

Test [2] has as its system tyrosine kinase in cell membrane fraction of CAMA-1. Described as above. In kind it is biochemical. To be noted: for Inhibition rate: 25 μM kinase inhibitor, 25 μM ATP. The gist of the method:
as §1

For test [3], the system named is tyrosine kinase in cell membrane fraction of HCC1428. Described as above. In kind it is biochemical. To be noted: for Inhibition rate: 25 μM kinase inhibitor, 25 μM ATP. The gist of the method:
as §1

Test [4] concerns tyrosine kinase in cell membrane fraction of HCC1806. The test is described as above. The format is biochemical. The settings on record: for Inhibition rate: 25 μM kinase inhibitor, 25 μM ATP. The gist of the method:
as §1

Test [5] concerns tyrosine kinase in cell membrane fraction of HS578T. Described as above. The settings on record: for Inhibition rate: 25 μM kinase inhibitor, 25 μM ATP. In kind it is biochemical. In a few lines: as §1
In test [6] the test system is tyrosine kinase in cell membrane fraction of MCF7. Described as above. In kind it is biochemical. To be noted: for Inhibition rate: 25 μM kinase inhibitor, 25 μM ATP. The gist of the method: as §1
The test system of test [7] is tyrosine kinase in cell membrane fraction of MDA-MB-231. The description is as above. To be noted: for Inhibition rate: 25 μM kinase inhibitor, 25 μM ATP. The format is biochemical. In a few lines: as §1
In test [8] the test system is tyrosine kinase in cell membrane fraction of MDA-MB-435S. Described as above. In kind it is biochemical. To be noted: for Inhibition rate: 25 μM kinase inhibitor, 25 μM ATP. The gist of the method:
as §1

The test system of test [9] is tyrosine kinase in cell membrane fraction of SK-BR-3. The test is described as above. In kind it is biochemical. To be noted: for Inhibition rate: 25 μM kinase inhibitor, 25 μM ATP. In a few lines:
as §1

Test [10] concerns tyrosine kinase in cell membrane fraction of T47D. Described as above. The format is biochemical. The settings on record: 25 μM kinase inhibitor, 25 μM ATP. The gist of the method: as §1
For test [11], the system named is tyrosine kinase in cell membrane fraction of UACC893. Described as above. To be noted: for Inhibition rate: UACC893, 25 μM kinase inhibitor, 25 μM ATP. The format is biochemical. The gist of the method:
as §1

The subject of test [12] is tyrosine kinase of SK-Br-3. To be noted: US 2011027809; cited from earlier work.
The test system of test [13] is tyrosine kinase of T47D. To be noted: US 2011027809; cited from earlier work.

`COc1cc2c(cc1OC)-c1[nH]nc(Nc3cccc(F)c3)c1C2` [Inhibitor 6]: the Inhibition rate amounted to 62.9% in test [1]; 15.9% in [2]; 30.0% in test [3]; 38.8% in [4]; 49.7% in test [5]; 44.4% in test [6]. Also, the Inhibition rate in [7] is reported as 45.7%; in [8], 40.6%; in test [9], 45.3%; in [10], 37.5%; in test [11], 28.0%.

Take `CCCNC(=O)Nc1ccc(Oc2ncnc3cc(OC)c(OC)cc23)cc1Cl` [Inhibitor 7]: the Inhibition rate in test [1] is listed as 17.3%; in test [2], 3.4%; in test [3], 12.9%; in test [4], 27.7%; in test [5] it was 19.4%; in test [6], 59.1%. In addition, the Inhibition rate was 9.7% in [7]; 10.5% in test [8]; 45.0% in [9]; 22.0% in test [10]; 23.9% in test [11].

For `CN(C)c1cc2c(Nc3ccc4c(cnn4Cc4ccccc4)c3)ncnc2cn1` [Inhibitor 4, N4-(1-benzyl-1H-indazol-5-yl)-N6,N6-dimethyl-pyrido-[3,4-d]-pyrimidine-4,6-diamine], the Inhibition rate was found to be 52.7% in test [1]; 7.3% in [2]; 7.9% in [3]; 33.7% in [4]; 32.1% in test [5]; 12.1% in test [6]. For the same molecule, the Inhibition rate in [7] is 38.9%; in [8] it was 22.6%; in [9] it was 31.4%; in test [10] it was 27.0%; in test [11], −3.1%.

With `CS(=O)(=O)CCNCc1nc(-c2ccc3ncnc(Nc4ccc(OCc5cccc(F)c5)c(Cl)c4)c3c2)cs1.Cl.Cl` [Inhibitor 5, N-[3-chloro-4-[(3-fluorophenyl)methoxy]phenyl]-6-[2-[[[2-(methylsulfonyl)ethyl]amino]methyl]-4-thiazolyl]-4-quinazolineamine dihydrochloride], the Inhibition rate was 66.9% in test [1]; 48.6% in [2]; 56.1% in test [3]; 68.4% in test [4]; 64.2% in test [5]; 75.4% in [6]. Further, the Inhibition rate turned out to be 58.2% in test [7]; 57.8% in [8]; 75.7% in test [9]; 50.9% in [10]; 48.4% in test [11].

As to `Cc1cc(F)c(Nc2ncnc3cc(OCc4ccccc4)ccc23)cc1O.Cl` [Inhibitor 8], the Inhibition rate in [1] came to 27.2%; in test [2], 8.1%; in test [3], 2.2%; in test [4] it was 6.4%; in test [5] it was 5.5%; in test [6], 45.7%. The Inhibition rate in test [7] was determined as 12.8%; in test [8], 9.8%; in test [9], 25.9%; in test [10], 38.1%; in test [11], 3.3%.

In the case of `COc1cc2ncnc(Nc3ccc(Oc4ccccc4)cc3)c2cc1OC` [Inhibitor 10, 4-(4′-phenoxyanilino)-6,7-dimethoxyquinazoline], the “Example 1 Inhibitory capacity of Src inhibitor” value in test [1] is reported as “high (the term “high” means a cell line whose inhibition rate of the Src inhibitor is more than the threshold value)”; in [2] it was “low (the term “low” means a cell line whose inhibition rate of the Src inhibitor is lower than the threshold value (=43.4%))”; in test [3], “high (the term “high” means a cell line whose inhibition rate of the Src inhibitor is more than the threshold value)”; in test [4], “high (the term “high” means a cell line whose inhibition rate of the Src inhibitor is more than the threshold value)”; in [5], “high (the term “high” means a cell line whose inhibition rate of the Src inhibitor is more than the threshold value)”; in test [6] it was “high (the term “high” means a cell line whose inhibition rate of the Src inhibitor is more than the threshold value)”. The “Example 1 Inhibitory capacity of Src inhibitor” value in test [7] is listed as “high (the term “high” means a cell line whose inhibition rate of the Src inhibitor is more than the threshold value)”; in test [8], “high (the term “high” means a cell line whose inhibition rate of the Src inhibitor is more than the threshold value)”; in [9], “low (the term “low” means a cell line whose inhibition rate of the Src inhibitor is lower than the threshold value (=43.4%))”; in test [11] (UACC-893) it was “low (the term “low” means a cell line whose inhibition rate of the Src inhibitor is lower than the threshold value (=43.4%))”. Besides, the Inhibition rate in test [1] is on record as 78.5%; in test [2], 34.6%; in [3], 43.7%; in [4] it was 67.1%; in test [5], 58.2%; in test [6], 49.2%. Besides, the Inhibition rate is recorded as 63.6% in [7]; 44.9% in [8]; 43.3% in test [9]; 42.3% in [10]; 25.6% in test [11]. The “tyrosine kinase activity inhibitory effects caused by the Src inhibitor” value in [12] is “high”; in test [13], “low”.

`CN1CCC(Nc2ncc3ncnc(Nc4ccc(F)c(Cl)c4)c3n2)CC1` [Inhibitor 2]: the Inhibition rate is on record as 40.3% in [1]; −3.4% in test [2]; 6.8% in test [3]; 29.6% in test [4]; 20.8% in [5]; 19.9% in test [6]. Further, the Inhibition rate in test [7] is listed as 23.5%; in [8] it was 3.8%; in test [9] it was 18.8%; in [10], 7.7%; in test [11] it was 4.1%.

Regarding `Cc1[nH]c(/C=C2\C(=O)Nc3ccc(S(=O)(=O)N(C)c4cccc(Cl)c4)cc32)c(C)c1C(=O)N1CCN(C)CC1` [Inhibitor 9], the Inhibition rate was found to be 68.6% in [1]; 60.2% in [2]; 47.5% in test [3]; 77.3% in [4]; 70.6% in test [5]; 64.3% in test [6]. Besides, the Inhibition rate in [7] is 68.0%; in [8], 80.3%; in test [9], 66.1%; in test [10] it was 42.5%; in test [11] it was 56.9%.

Take `COc1cc2ncnc(Nc3cccc(Cl)c3)c2cc1OC` [Inhibitor 1]: the Inhibition rate in [1] is 54.7%; in [2], 14.3%; in test [3], 19.3%; in test [4], 57.9%; in test [5], 53.8%; in test [6] it was 48.0%. In addition, the Inhibition rate in test [7] stood at 56.4%; in [8], 33.4%; in test [9], 46.8%; in test [10], 29.1%; in test [11], 21.2%.

`COc1cc2ncnc(Nc3ccc(OCc4ccccc4)cc3)c2cc1OC` [Inhibitor 3, 4-(4-benzyloxyanilino)-6,7-dimethoxyquinazoline]: the Inhibition rate in [1] turned out to be 68.5%; in test [2] it was 16.7%; in test [3] it was 29.8%; in test [4], 56.4%; in test [5] it was 40.0%; in test [6], 11.3%. For the same molecule, the Inhibition rate in test [7] is given as 42.0%; in test [8], 37.2%; in test [9], 44.1%; in [10] it was 30.2%; in [11], 22.9%.
